Source: US9895450B2, “Anti-wall teichoic antibodies and conjugates” (priority 2013, dated 2018)

Tests used:
[1] = system: MRSA (NRS384 strain of USA300); assay: MIC determinations for intracellular bacteria (inside mouse peritoneal macrophages); assay type: cell-based, S. aureus; details: for killing of intracellular MRSA sequestered inside macrophages: dose range including serum Cmax; for potency at killing intracellular MRSA as free antibiotics: tested as free antibiotics
[2] = system: MRSA (USA300); assay: intravenous infection model in CB17.SCID mice reconstituted with human IgG (SCID:huIgG); assay type: in vivo; details: twice-daily 100 mg/Kg, treatment initiated more than 1 day post infection
Protocol: To confirm that the AAC would be effective in the presence of competing human antibodies in vivo, the in vivo infection model was modified to generate mice that express normal levels of human IgG in the serum. […] Four days after infection the bacterial load in the kidneys (FIG. 10C) was assessed.
CB17.SCID mice were reconstituted with human IgG using a dosing regimen optimized to yield constant levels of at least 10 mg/mL of human IgG in serum.
Efficacy of the AAC was compared with that of treatment with vancomycin, the current standard of care treatment for MRSA infections. […]
CB17.SCID mice were reconstituted with human IgG using a dosing regimen optimized to yield constant levels of at least 10 mg/mL of human IgG in serum and infected with 2×10^7 CFU of USA300 by intravenous injection. […] The mice were sacrificed on day 4 post infection, and the total number of surviving bacteria in kidneys (2 kidneys pooled, FIG. 21) and heart (FIG. 22) was determined by plating.
(§1) Intravenous Infection Model: 7 week old female mice were used for all in vivo experiments and infections were carried out by intravenous injection into the tail vein. […] The total number of bacteria recovered per mouse (2 kidneys) was determined by plating serial dilutions of the tissue homogenate in PBS 0.05% Tween on Tryptic Soy Agar with 5% defibrinated sheep blood.

[3] = system: USA300; assay: intravenous infection model in Balb/c mice, pre-treatment; assay type: in vivo; details: antibodies 50 mg/Kg IV 30 minutes prior to infection; vancomycin 110 mg/Kg twice daily IP; day 4
Protocol: Balb/c mice were given a single dose of vehicle control (PBS) or 50 mg/Kg of antibodies by intravenous injection 30 minutes prior to infection with 2×10^7 CFU of USA300. […] Control mice were given twice daily treatments with 110 mg/Kg of vancomycin by intraperitoneal injection (Vanco). All mice were sacrificed on day 4 post-infection, and the total number of surviving bacteria in kidneys (2 kidneys pooled) was determined by plating.
(§2) Intravenous Infection Model: 7 week old female mice were used for all in vivo experiments and infections were carried out by intravenous injection into the tail vein. A/J mice (Jackson Lab) were infected with a dose of 2×10^6 CFU. Balb/c mice (Charles River Laboratories, Hollister, Calif.) were infected with a dose of 2×10^7 CFU. For studies examining the role of competing human IgG (SCID IVIG model), CB17.SCID mice (Charles River Laboratories, Hollister, Calif.) were reconstituted with GammaGard S/D IGIV Immune Globulin (ASD Healthcare, Brooks Ky.) using a dosing regimen optimized to achieve constant serum levels of >10 mg/mL of human IgG. […] The total number of bacteria recovered per mouse (2 kidneys) was determined by plating serial dilutions of the tissue homogenate in PBS 0.05% Tween on Tryptic Soy Agar with 5% defibrinated sheep blood.

[4] = system: MRSA; details: vancomycin 2 and 20 μg/mL; rifampin 0.02 and 0.2 μg/mL; TSB
[5] = clinically achieveable serum levels; cited from earlier work
[6] = system: MRSA; assay: intravenous infection model in CB17.SCID mice, treatment 1 day after infection; assay type: in vivo; details: AAC 50 mg/Kg or antibiotic 0.5 mg/Kg, 1 day post infection; kidneys day 4
Protocol: One day after infection, the mice were treated with 50 mg/Kg of S4497 antibody, 50 mg/Kg of S4497 dimethyl-pipBOR AAC 105 or with 0.5 mg/Kg of dimethyl-pipBOR antibiotic 7, the equivalent dose of antibiotic that is contained in 50 mg/Kg of AAC). Mice were sacrificed 4 days after infection and the total number of surviving bacteria per mouse (2 kidneys pooled) was determined by plating.
as §2

[7] = system: MRSA (USA300 strain); assay: in vitro macrophage assay (intracellular killing of opsonized MRSA); assay type: cell-based, S. aureus; details: 50 μg/mL; macrophages, osteoblasts (MG63), airway epithelial cells (A549), HUVEC
Protocol: Isolation of Peritoneal Macrophages: Peritoneal macrophages were isolated from the peritoneum of 6-8 week old Balb/c mice (Charles River Laboratories, Hollister, Calif.). To increase the yield of macrophages, mice were pre-treated by intraperitoneal injection with 1 mL of thioglycolate media (Becton Dickinson). The thioglycolate media was prepared at a concentration of 4% in water, sterilized by autoclaving, and aged for 20 days to 6 months prior to use. Peritoneal macrophages were harvested 4 days post treatment with thioglycolate by washing the peritoneal cavity with cold phosphate buffered saline. Macrophages were plated in Dulbecco's Modified Eagle Medium (DMEM) supplemented with 10% Fetal Calf Serum, and 10 mM HEPES, without antibiotics, at a density of 4×10^5 cells/well in 24 well culture dishes. Macrophages were cultured over night to permit adherence to the plate. This assay was also utilized to test intracellular killing in non-phagocytic cell types. […]
Infection of Macrophages with Opsonized MRSA: The USA300 strain of MRSA (NRS384) was obtained from the NARSA repository (Chantilly, Va.). […] Serial dilutions of the lysate were made in phosphate buffered saline solution supplemented with 0.05% Tween-20 (to disrupt aggregates of bacteria) and the total number of surviving intracellular bacteria was determined by plating on Tryptic Soy Agar with 5% defibrinated sheep blood.

[8] = system: MRSA (USA300 strain); assay: intravenous infection model in A/J mice; assay type: in vivo
Protocol: Efficacy of the AAC in an intravenous infection model was also examined. In this model, S. aureus is taken up by circulating neutrophils shortly after infection such that the majority of bacteria found in blood are associated with host cells within minutes after infection (Rogers, et al (1956) J. Exp. Med. 103:713-742). A/J Mice were infected with 2×10^6 CFU of MRSA by intravenous injection, and then treated with 50 mg/Kg of AACs by intravenous injection 30 minutes post infection. In this model, the primary site of infection is the kidney, and mice develop large abscesses that are detectable by two days post infection and fail to be cleared for up to 30 days in the absence of treatment.
Treatments were delivered by IV injection 30 minutes post infection and kidneys were harvested 4 days post infection. The grey dashed line indicates the limit of detection for each organ.
Efficacy of AAC made with pipBOR and dimethyl-pipBOR antibiotic moieties was compared in vivo in the intravenous infection model in A/J mice. […] Seven week old female A/J Mice were infected with 2×10^6 CFU of MRSA (USA300 strain) by intravenous injection into the tail vein. […] Treatments with S4497 antibody, AAC 102 or AAC 105 were administered at the indicated doses 30 minutes after infection. Mice were sacrificed 4 days after infection and the total number of surviving bacteria per mouse (2 kidneys pooled) was determined by plating.
as §1, with “vein. A/J mice (Jackson Lab) were infected with a dose of 2×10^6 CFU. Balb/c mice (Charles River Laboratories, Hollister, Calif.) were infected with a dose of 2×10^7 CFU.” for “vein.”

[9] = system: MRSA; assay: growth inhibition assay / cathepsin release assay; assay type: cell-based, S. aureus; details: MRSA cultured overnight with up to 10 μg/mL of AAC
Protocol: An AAC comprising antibody rF1, which binds to a family of cell wall associated proteins was conjugated to a rifamycin derivative. S. aureus (Newman strain) was treated with various doses of the rF1-AAC or with equivalent doses of either antibody alone, rifampicin alone or a mixture of antibody and free rifampicin to permit antibody binding to the bacteria (opsonization) and after 1 hour incubation the opsonized bacteria were fed to macrophages (FIG. 7A).
See: page 863 of Dubowchik et al (2002) Bioconj. Chem. 13:855-869, incorporated by reference for the purposes of this assay. Cathepsin B (from bovine spleen, SIGMA C7800) was added at 10 μg/mL and the samples were incubated for 1 hour at 37° C. As a control, AAC were incubated in buffer alone. The reaction was stopped by addition of 10 volumes of bacterial growth media, Tryptic Soy Broth pH 7.4 (TSB). To estimate the total release of active antibiotic, serial dilutions of the reaction mixture were made in quadruplicate in TSB in 96 well plates and the USA300 strain of S. aureus was added to each well at a final density of 2×10^3 CFU/mL. The cultures were incubated over night at […] with shaking and bacterial growth was measured by reading absorbance at 630 nm using a plate reader.

For `CCCCCCCCCC(=O)N[C@@H](Cc1c[nH]c2ccccc12)C(=O)N[C@H](CC(N)=O)C(=O)N[C@@H](CC(=O)O)C(=O)N[C@@H]1C(=O)NCC(=O)N[C@@H](CCCN)C(=O)N[C@@H](CC(=O)O)C(=O)N[C@H](C)C(=O)N[C@@H](CC(=O)O)C(=O)NCC(=O)N[C@H](CO)C(=O)N[C@@H]([C@H](C)CC(=O)O)C(=O)N[C@@H](CC(=O)c2ccccc2N)C(=O)O[C@@H]1C` [Daptomycin, daptomycin], the “killing of intracellular MRSA sequestered inside macrophages” value [1] was “failed to kill”.
For `CC(=O)NC[C@H]1CN(c2ccc(N3CCOCC3)c(F)c2)C(=O)O1` [Linezolid, linezolid], the MIC ([1]; Staphylococcus aureus, MRSA inside mouse peritoneal macrophages, antibiotic added 1 day after infection, survival 24 hours later) was > 20 µg/mL and the “killing of intracellular MRSA sequestered inside macrophages” value [1] was “failed to kill”.
For `CN[C@H](CC(C)C)C(=O)N[C@H]1C(=O)N[C@@H](CC(N)=O)C(=O)N[C@H]2C(=O)N[C@H]3C(=O)N[C@H](C(=O)N[C@H](C(=O)O)c4cc(O)cc(O)c4-c4cc3ccc4O)[C@H](O)c3ccc(c(Cl)c3)Oc3cc2cc(c3O[C@@H]2O[C@H](CO)[C@@H](O)[C@H](O)[C@H]2O[C@H]2C[C@](C)(N)[C@H](O)[C@H](C)O2)Oc2ccc(cc2Cl)[C@H]1O` [Vancomycin, vancomycin], the “killing of intracellular MRSA sequestered inside macrophages” value [1] was “failed to kill”, the “reduction of bacterial loads” value [2] was “about 50 fold” and the “effect of pre-treatment on bacterial loads in kidneys” value [3] was “cleared the infection in all of the mice tested”. The “bacteria remaining viable during the first two hours of antibiotic treatment” value [4] was 90%, the “loss in viable bacteria by 5 hours” value [4] was 100 fold and the “Serum Cmax” value [5] was 10000 to 40000 ng/mL.
In the case of `CO[C@H]1/C=C/O[C@@]2(C)Oc3c(C)c(O)c4c(=O)c(c5oc6cc(N7CCC(N(C)C)CC7)cc(O)c6nc-5c4c3C2=O)NC(=O)/C(C)=C\C=C\[C@H](C)[C@H](O)[C@@H](C)[C@@H](O)[C@@H](C)[C@H](OC(C)=O)[C@@H]1C` [dimethyl-pipBOR, dimethylpiperidyl benzoxazino rifamycin], the “potency at killing intracellular MRSA as free antibiotics” value [1] is reported as “more potent than rifampicin” and the “efficacy against established infection” value [6] is reported as “failed to clear the infection”.
With “piperidyl benzoxazino rifamycin [pipBOR]” the “potency at killing intracellular MRSA as free antibiotics” value [1] was “more potent than rifampicin”.
In the case of “thio-S4497-HC-A118C-MC-vc-PABC-(pipBOR) [rifa-102]”, the “intracellular killing of MRSA” value [7] is reported as “effectively killed”, the “efficacy at the highest dose” value ([8]; 50 mg/Kg) is reported as “effective” and the “efficacy in kidney infection” value ([8]; 50 mg/Kg IV 30 minutes post infection, kidneys 4 days post infection) is reported as “cleared the infection in all of the mice tested”. The “efficacy at lower doses” value ([8]; doses below 50 mg/Kg) was “only partially efficacious” and the “inhibition of bacterial growth by intact AAC” value [9] was “did not result in inhibition of bacterial growth unless the AACs were pre-treated with cathepsin B”.
